Test results reported in US7393856B2, “Anti-viral uses of borinic acid complexes” (Anacor Pharmaceuticals, Inc., priority 2004, dated 2008).

Legend:
[1] = HepG2 2.15 anti-viral evaluation assay (in vitro anti-HBV activity); format: cell-based, HBV aywl strain; conditions: human, HepG2 2.2.15 cells (produce HBV aywl strain); HepG2 2.2.15 cells; positive control; read-out: Anti-HBV TC50
Method: (§1) HepG2 2.2.15 cells, which produce HBV aywl strain, were plated in 96-well collagen coated microtiter plates at a density of 2.5×10^4/well with DMEM medium supplemented with 2% fetal bovine serum. One day following plating of cells, the wells were washed and the medium was replaced with complete medium containing the test compound diluted in the medium in a half-log series.
(§2) The medium was replaced once with the fresh medium containing the freshly diluted compound three days post the initial addition of the lamivudine, a positive control compound. Cell viability was determined using CellTiter 96® Reagent (Promega, Madison, Wis.) according to the manufacturer's protocol, using a Vmax plate reader (Molecular Devices, Sunnyvale, Calif.). The mixture is metabolized by the mitochondrial enzymes of metabolically active cells to a soluble formazan product, allowing the rapid quantitative analysis of cell numbers. The media was removed and replaced with 100 μL of fresh media and 10 μL of Cell Titer 96. […] Percent cell viability of compound treated wells compared to no compound controls was calculated using an in-house computer program which graphs the percent reduction in viral cytopathic effects and the cell numbers at each drug concentration relative to control values.

HBV = assay: as above; format: cell-based, HBV aywl strain
Method: as §1, §2

[2] = In vitro anti-viral activity for HSV-1; format: cell-based; conditions: HSV-1 assay; toxic concentration that kills 50% of cells; read-out: Anti-HSV-1 Activity TC50
HSV-1 = assay: In vitro anti-viral activity for HSV-1; format: cell-based; conditions: Human alphaherpesvirus 1
[3] = In vitro anti-viral activity for HSV-2; format: cell-based; conditions: HSV-2 assay; toxic concentration that kills 50% of cells; read-out: Anti-HSV-2 Activity TC50
HSV-2 = assay: In vitro anti-viral activity for HSV-2; format: cell-based; conditions: Human alphaherpesvirus 2
[4] = In vitro anti-viral activity for HIV-1; format: cell-based; conditions: HIV-1 assay; toxic concentration that kills 50% of cells; read-out: Anti-HIV-1 Activity TC50
HIV-1 = assay: In vitro anti-viral activity for HIV-1; format: cell-based; conditions: Human immunodeficiency virus 1
[5] = In vitro anti-viral activity for HIV-2; format: cell-based; conditions: HIV-2 assay; toxic concentration that kills 50% of cells; read-out: Anti-HIV-2 Activity TC50
HIV-2 = assay: In vitro anti-viral activity for HIV-2; format: cell-based; conditions: Human immunodeficiency virus 2

Row | Compound | CC50 [1] [µM] | Anti-viral Selectivity Index (HBV; HBV, TC50/IC50) | IC50 (HBV; Hepatitis B virus, HepG2 2.2.15 cells, positive control) [µM] | CC50 [2] [µM] | IC50 (HSV-1) [µM] | CC50 [3] [µM] | IC50 (HSV-2) [µM] | CC50 [4] [µM] | IC50 (HIV-1) [µM] | CC50 [5] [µM] | IC50 (HIV-2) [µM]
1 | Nc1ccn([C@@H]2CS[C@H](CO)O2)c(=O)n1 [Lamivudine] | > 1 | >1075 | 0.0093 | – | – | – | – | – | – | – | –
2 | Fc1ccc(B(Oc2cccc3cccnc23)c2ccc(Cl)cc2)cc1 [Compound 15, (4-Fluorophenyl)(4-chlorophenyl)borinic acid quinolin-8-yl ester] | – | – | – | > 32 | 9.68 | 32.9 | > 50 | 2.5 | 0.17 | 0.53 | 0.04
3 | Nc1nc2c(ncn2COCCO)c(=O)[nH]1 [Acyclovir, reference compound] | – | – | – | > 100 | 18 | > 100 | 7.61 | – | – | – | –
